Reference: patent US10787433B2, “Pyridazine derivatives as EAAT2 activators” (THE BRIGHAM AND WOMEN'S HOSPITAL, INC., priority 2016, dated 2020)

test system: EAAT2; assay: EAAT2 Cellular Assay: EAAT2 protein levels in PA-EAAT2 cells by Western blot; format: cell-based, human; conditions: 0.25 μM (concentration that reaches maximum activity), 24 hr, relative to DMSO controls
Experimental: All of the compounds were initially evaluated in PA-EAAT2 cells, a primary astrocyte stably expressing human EAAT2 mRNAs (Kong et al., J Clin Invest. 2014:1255-67). Cells were treated with compound at 0.25 μM, 0.5 μM, 1 μM, 2.5 μM, 5 μM, 10 μM, and 25 μM for 24 hr and then harvested for measuring EAAT2 protein levels by Western blot analysis.

SMILES	Fold increase for EAAT2 at indicated concentration (maximum activity)
O=S(=O)(Nc1ccc(-c2ccccn2)nn1)c1ccccc1F	2.6 ± 0.2 (0.25 μM) fold
O=C(Nc1ccc(-c2ccccn2)nn1)c1cc(F)ccn1	1.7 ± 0.1 (0.25 μM) fold
O=C(Nc1ccc(-c2ccccn2)nn1)c1ccc(F)cn1	1.9 ± 0.2 (0.25 μM) fold
O=C(Nc1ccc(-c2ccccn2)nn1)c1cccc(F)n1	1.6 ± 0.1 (0.25 μM) fold
O=C(Nc1ccc(-c2ccccn2)nn1)c1ccc(F)c(Cl)c1	2.2 ± 0.4 (0.25 μM) fold
O=C(Nc1ccc(-c2ccccn2)nn1)c1ccc(F)cc1 [drawing 110]	2.5 ± 0.3 (0.25 μM) fold
CNC(=O)COc1ccc(-c2ccccn2)nn1 [drawing 129]	2.3 ± 0.1 (0.25 μM) fold

same assay, conditions: 0.5 μM (concentration that reaches maximum activity), 24 hr, relative to DMSO controls

SMILES	Fold increase for EAAT2 at indicated concentration (maximum activity)
O=S(=O)(Nc1ccc(-c2ccccn2)nn1)c1ccc(F)cc1	2.4 ± 0.2 (0.5 μM) fold
CN1CCC(C(=O)Nc2ccc(-c3ccccn3)nn2)CC1	1.7 ± 0.1 (0.5 μM) fold
O=C(Nc1ccc(-c2ccccn2)nn1)c1ncccn1	1.5 ± 0.1 (0.5 μM) fold
O=C(Nc1ccc(-c2ccccn2)nn1)c1cccnn1	1.9 ± 0.1 (0.5 μM) fold

same assay, conditions: 1 μM (concentration that reaches maximum activity), 24 hr, relative to DMSO controls

SMILES	Fold increase for EAAT2 at indicated concentration (maximum activity)
O=C(Nc1ccc(-c2ccccn2)nn1)c1cccc(Cl)c1	1.5 ± 0.1 (1 μM) fold
O=C(Nc1ccc(-c2ccccn2)nn1)c1ccc(Cl)cc1	1.5 ± 0.2 (1 μM) fold

same assay, conditions: 2.5 μM (concentration that reaches maximum activity), 24 hr, relative to DMSO controls

SMILES	Fold increase for EAAT2 at indicated concentration (maximum activity)
c1ccc(-c2ccc(OCc3ncco3)nn2)nc1	1.9 ± 0.1 (2.5 μM) fold
CN(C)CCOc1ccc(-c2ccccn2)nn1	2.9 ± 0.2 (2.5 μM) fold

same assay, conditions: 5 μM (concentration that reaches maximum activity), 24 hr, relative to DMSO controls

SMILES	Fold increase for EAAT2 at indicated concentration (maximum activity)
c1ccc(COc2ccc(-c3ccccn3)nn2)nc1	3.0 ± 0.1 (5 μM) fold
O=C(Nc1ccc(-c2ccccn2)nn1)c1ccccc1Cl	2.0 ± 0.2 (5 μM) fold
CN(C)C(=O)COc1ccc(-c2ccccn2)nn1	2.9 ± 0.2 (5 μM) fold
O=C(Nc1ccc(-c2ccccn2)nn1)c1cncs1	1.9 ± 0.1 (5 μM) fold
Cn1cncc1COc1ccc(-c2ccccn2)nn1	1.7 ± 0.1 (5 μM) fold
Cn1ccnc1COc1ccc(-c2ccccn2)nn1	1.9 ± 0.1 (5 μM) fold
CC(Oc1ccc(-c2ccccn2)nn1)c1ccccn1 (centres unmarked)	1.7 ± 0.1 (5 μM) fold
CN(C)CCNc1ccc(-c2ccccn2)nn1	2.4 ± 0.2 (5 μM) fold
c1ccc(-c2ccc(NCCCn3ccnc3)nn2)nc1	3.3 ± 0.2 (5 μM) fold

same assay, conditions: 10 μM (concentration that reaches maximum activity), 24 hr, relative to DMSO controls

SMILES	Fold increase for EAAT2 at indicated concentration (maximum activity)
O=C(Nc1ccc(-c2cccnc2)nn1)c1ccc(F)cc1	2.1 ± 0.2 (10 μM) fold
Cn1cncc1C(=O)Nc1ccc(-c2ccccn2)nn1	1.8± 0.2 (10 μM) fold
COc1ccc(C(=O)Nc2ccc(-c3ccccn3)nn2)cc1	2.1 ± 0.2 (10 μM) fold
NC(=O)COc1ccc(-c2ccccn2)nn1	1.8 ± 0.2 (10 μM) fold
Cc1ccccc1NC(=O)COc1ccc(-c2ccccn2)nn1	2.4 ± 0.2 (10 μM) fold
CN(C(=O)COc1ccc(-c2ccccn2)nn1)c1ccccc1	2.2 ± 0.3 (10 μM) fold
O=C(COc1ccc(-c2ccccn2)nn1)N1CCCCC1	2.6 ± 0.1 (10 μM) fold
c1ccc(-c2ccc(OCc3nccs3)nn2)nc1	2.2 ± 0.3 (10 μM) fold
c1ccc(CNc2ccc(-c3ccccn3)nn2)cc1	3.1 ± 0.3 (10 μM) fold
CNC(=O)COc1ccc(-c2ccccn2)nn1 [drawing 130]	1.8 ± 0.1 (10 μM) fold

test system: EAAT2; assay: EAAT2 expression in mouse brain after single oral dose (semi-quantitative Western blot); format: in vivo; conditions: mice, single dose by oral gavage, brains harvested at 24 h post-treatment
Experimental: Mice received a single dose of the compound (n=3/dose) by oral gavage. Brains were harvested at 24 h post-treatment. EAAT2 protein levels were analyzed by semi-quantitative Western blot analysis.

SMILES	EAAT2 protein levels in mouse brain
O=C(Nc1ccc(-c2ccccn2)nn1)c1ccc(F)cc1 [Example 4, 4-Fluoro-N-(6-(pyridin-2-yl)pyridazin-3-yl)benzamide]	dose-dependently increased EAAT2 levels
